According to PMC6099553, “Novel Structural Insight into Inhibitors of Heme Oxygenase-1 (HO-1) by New Imidazole-Based Compounds: Biochemical and In Vitro Anticancer Activity Evaluation” (Molecules : A Journal of Synthetic Chemistry and Natural …, 2018):
Values belong to the compound of their own block, whether it stands above or below them.

Experiments:
HO-1 [1] = molecular target: T1, HO-1 (Rattus norvegicus, UniProt P06762); assay: HO-1 inhibition, rat spleen microsomal fraction, bilirubin formation; assay type: biochemical; conditions: for IC50: rat spleen microsomes, mean ± SD, triplicate
T1 construct: selected in order to use the most native (i.e., closest to in vivo) forms of HO-1 and HO-2; from tissue; host or cells: spleen microsomal fraction of male Sprague-Dawley rats
T1 sequence (P06762 1-289): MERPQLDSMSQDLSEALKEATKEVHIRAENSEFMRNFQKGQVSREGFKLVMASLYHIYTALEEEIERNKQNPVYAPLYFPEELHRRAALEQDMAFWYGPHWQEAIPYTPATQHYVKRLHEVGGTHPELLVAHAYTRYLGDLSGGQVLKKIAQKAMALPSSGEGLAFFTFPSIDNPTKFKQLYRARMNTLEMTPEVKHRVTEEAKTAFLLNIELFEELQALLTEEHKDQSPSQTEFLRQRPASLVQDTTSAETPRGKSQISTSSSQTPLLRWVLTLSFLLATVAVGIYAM
Protocol: Inhibition activity assay for HO-1 was performed by extracting the enzyme from the rat spleen microsomal fraction. HO-1 activity was determined by measuring the formation of BR using the difference in absorbance at 464–530 nm, as described in the experimental section. Inhibition activity data are expressed as IC50 (μM) and obtained results are outlined in Table 2, utilizing Azalanstat as a reference compound.
HO-1 and HO-2 were obtained from rat spleen and brain, respectively, as the microsomal fraction prepared by differential centrifugation; the dominance of HO-1 protein in the rat spleen and of HO-2 in the rat brain has been well documented. These particular microsomal preparations were selected in order to use the most native (i.e., closest to in vivo) forms of HO-1 and HO-2. Spleen and brain (Sprague–Dawley rats) microsomal fractions were prepared according to the procedure outlined by Ryter et al.. The experiments reported in the present paper complied with current Italian law and met the guidelines of the Institutional Animal Care and Use Committee of University of Catania (Italy). The experiments were performed in male Sprague–Dawley albino rats (150 g body weight and age 45 d). They had free access to water and were kept at room temperature with a natural photo-period (12 h light-12 h dark cycle). For measuring HO-1 and HO-2 activities, each rat was sacrificed and their spleen and brain were excised and weighed. A homogenate (15%, w/v) of spleens and brains pooled from four rats was prepared in ice-cold HO-homogenizing buffer (50 mM Tris buffer, pH 7.4, containing 0.25 M sucrose) using a Potter–Elvehjem homogenizing system with a Teflon pestle. The microsomal fraction of rat spleen and brain homogenate was obtained by centrifugation at 10,000 rpm for 20 min at 4 °C, followed by centrifugation of the supernatant at 100,000 rpm for 60 min at 4 °C. The 100,000 rpm pellet (microsomes) was resuspended in 100 mM potassium phosphate buffer, pH 7.8, containing 2 mM MgCl2 with a Potter–Elvehjem homogenizing system. The rat spleen and brain microsomal fractions were divided into equal aliquots, placed into microcentrifuge tubes, and stored at −80 °C for up to 2 months. Protein concentration of the microsomal fraction was determined by Lowry method.
(§1) Liver cytosol has been used as a source of biliverdin reductase (BVR). […] The 100,000 rpm supernatant was saved and then stored in small amounts at −80 °C after its protein concentration was measured.
(§2) The HO-1 and HO-2 activities were determined by measuring the BR formation using the difference in absorbance at 464 to 530 nm as described by Ryter et al.. […] After recovering the chloroform phase, the amount of BR formed was measured with a double-beam spectrophotometer as OD464-530 nm (extinction coefficient, 40 mM/cm^−1 for BR). […]

HO-1 [2] = test system: HO-1; design: method as in PMID 23097500; conditions: Figure 1; cited from earlier work
HO-2 [3] = test system: HO-2; design: method as in PMID 23097500; conditions: Figure 1; cited from earlier work
MDA-MB-231 cells = assay: In vitro cytotoxicity, sulforhodamine B assay, MDA-MB-231; assay type: cell-based; conditions: Homo sapiens, hormone-resistant breast cancer cells, 72 h, SRB
Protocol: (§3) MDA-MB-231 cells (hormone resistant), MCF-7 (hormone sensitive), PC3 cells (hormone resistant), DU145 cells (hormone resistant), LnCap cells (hormone sensitive), B16, and HEK cells were maintained in complete growth media (DMEM/Ham’s F12 supplemented with 10% fetal bovine serum, […], 100 units/mL penicillin, 100 units/mL of streptomycin, and 2.2 g/L of NaHCO3) at 37 °C in a humidified atmosphere of 5% CO2. For all procedures, cells were harvested using TrypLE Express (Life Technologies, Auckland, New Zealand).
(§4) To test the cytotoxic effect of HO inhibitors, cells (8 × 10^3 cells/well) were seeded into 96-well plates and incubated for 24 h. This was followed by treatment with HO inhibitors at the concentrations 1.1–200 μM (1.1–1000 μM for HEK cells) of compound 1. In addition, the cytotoxicity of doxorubicin (5 μM, 10 μM, and 30 μM) and a combination of doxorubicin 5 μM and 37 μM 1 was assessed using B16 cells. In all experiments, the cells were incubated for 72 h. Following the incubation, cells were fixed using 10% trichloroacetic acid (TCA). Cytotoxicity was determined using the sulforhodamine B assay as previously described. […] Treatments were performed in triplicate and data represents mean of three independent experiments.

MCF-7 cells = assay: In vitro cytotoxicity, sulforhodamine B assay, MCF-7; assay type: cell-based; conditions: Homo sapiens, MCF7; hormone-sensitive breast cancer cells, 72 h, SRB
Protocol: as §3
To test the cytotoxic effect of HO inhibitors, cells (8 × 10^3 cells/well) were seeded into 96-well plates and incubated for 24 h. This was followed by treatment with HO inhibitors at the concentrations 1.1–200 μM (1.1–1000 μM for HEK cells) of compound 1. In addition, the cytotoxicity of doxorubicin (5 μM, 10 μM, and 30 μM) and a combination of doxorubicin 5 μM and 37 μM 1 was assessed using B16 cells. In all experiments, the cells were incubated for 72 h. Following the incubation, cells were fixed using 10% trichloroacetic acid (TCA). Cytotoxicity was determined using the sulforhodamine B assay as previously described. […]
Figure 3 Cytotoxicity of compound 1 against MCF-7 and B16 cells. […] At the end of treatment, cell number was determined using the sulforhodamine B assay. Data are expressed as mean ± SEM (n = 3). […]

DU145 cells = assay: In vitro cytotoxicity, sulforhodamine B assay, DU145; assay type: cell-based; conditions: Homo sapiens, DU-145; hormone-resistant prostate cancer cells, 72 h, SRB
Protocol: as §3, §4

PC3 cells = assay: In vitro cytotoxicity, sulforhodamine B assay, PC3; assay type: cell-based; conditions: Homo sapiens, PC-3; hormone-resistant prostate cancer cells, 72 h, SRB
Protocol: as §3, §4

LnCap cells = assay: In vitro cytotoxicity, sulforhodamine B assay, LnCap; assay type: cell-based; conditions: Homo sapiens, hormone-sensitive prostate cancer cells, 72 h, SRB
Protocol: as §3, §4

B16 cells = assay: In vitro cytotoxicity, sulforhodamine B assay, B16 (alone and with doxorubicin); assay type: cell-based, murine; conditions: for IC50: murine melanoma cells, 72 h, SRB
Protocol: as §3
as §4, with “In addition, the cytotoxicity of doxorubicin (5 μM, 10 μM, and 30 μM) and a combination of doxorubicin 5 μM and 37 μM 1 was assessed using B16 cells.” left out
Figure 3 Cytotoxicity of compound 1 against MCF-7 and B16 cells. (A) MCF-7 (hormone-sensitive breast cancer cells) and (B) B16 (melanoma) cells were treated with 1.1–200 μM of compound 1 for 72 h. Control wells were treated with vehicle only (0.2% DMSO). At the end of treatment, cell number was determined using the sulforhodamine B assay. Data are expressed as mean ± SEM (n = 3). Non-linear regression and IC50 values determination were performed using GraphPad Prism 6.
Figure 4 Cytotoxicity of compound 1 in combination with different concentration of doxorubicin (doxo) against B16 cells. Data are expressed as mean ± SEM (n = 3). *** Significant vs. untreated control cells: p < 0.001.

HEK cells = assay: In vitro cytotoxicity, sulforhodamine B assay, HEK (healthy cells); assay type: cell-based, human
Protocol: as §3, §4

HO-2 [4] = molecular target: T2, HO-2 (Rattus norvegicus, UniProt P23711); assay: HO-2 inhibition, rat brain microsomal fraction, bilirubin formation; assay type: biochemical; conditions: rat brain microsomes; mean ± SD, triplicate
T2 construct: selected in order to use the most native (i.e., closest to in vivo) forms of HO-1 and HO-2; from tissue; host or cells: brain microsomal fraction of male Sprague-Dawley rats
T2 sequence (P23711 1-315): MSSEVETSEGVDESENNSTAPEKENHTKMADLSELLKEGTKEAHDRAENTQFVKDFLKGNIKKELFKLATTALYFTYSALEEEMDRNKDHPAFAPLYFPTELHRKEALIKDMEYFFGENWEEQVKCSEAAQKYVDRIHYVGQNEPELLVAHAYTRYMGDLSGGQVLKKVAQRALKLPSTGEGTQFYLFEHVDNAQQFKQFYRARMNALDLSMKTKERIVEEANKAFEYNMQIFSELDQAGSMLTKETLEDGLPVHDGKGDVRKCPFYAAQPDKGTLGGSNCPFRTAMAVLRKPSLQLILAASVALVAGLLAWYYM
Protocol: HO-1 and HO-2 were obtained from rat spleen and brain, respectively, as the microsomal fraction prepared by differential centrifugation; the dominance of HO-1 protein in the rat spleen and of HO-2 in the rat brain has been well documented. These particular microsomal preparations were selected in order to use the most native (i.e., closest to in vivo) forms of HO-1 and HO-2. Spleen and brain (Sprague–Dawley rats) microsomal fractions were prepared according to the procedure outlined by Ryter et al.. The experiments reported in the present paper complied with current Italian law and met the guidelines of the Institutional Animal Care and Use Committee of University of Catania (Italy). The experiments were performed in male Sprague–Dawley albino rats (150 g body weight and age 45 d). […] Protein concentration of the microsomal fraction was determined by Lowry method.
as §1, §2

- IC50 (HO-1 [1]): 67.6 ± 2.1 µM
- melting point: 182 to 183 °C
Structure (SMILES): OC(Cn1ccnc1)C12CC3CC(CC(C3)C1)C2 (stereo not drawn) [Compound 4, 2-(1H-Imidazol-1-yl)-1-tricyclo[3.3.1.13,7]dec-1-yl-ethanol]

Structure (SMILES): O=C(Cn1ccnc1)C12CC3CC(CC(C3)C1)C2 [QC-82]
- IC50 (HO-1 [2]): 3 µM
- IC50 (HO-2 [3]): > 100 µM

Structure (SMILES): FC(F)(F)c1ccc(SC[C@@H]2CO[C@@](CCc3ccc(Cl)cc3)(Cn3ccnc3)O2)nc1 [QC-80]
- IC50 (HO-1 [2]): 2.1 µM
- IC50 (HO-2 [3]): 16 µM

Structure (SMILES): OC(Cn1ccnc1)c1cccc(Br)c1 (stereo not drawn) [Compound 1]
- IC50 (MDA-MB-231 cells): 82.6 ± 0.57 µM
- IC50 (MCF-7 cells): 52.6 ± 3.76 µM
- IC50 (DU145 cells): 138 ± 2.7 µM
- IC50 (PC3 cells): 165 ± 2.8 µM
- IC50 (LnCap cells): 158 ± 2.3 µM
- IC50 (B16 cells; Mus musculus, B16, 72 h): 42 µM
- Cytotoxic effect in combination with doxorubicin (B16 cells; compound 1 (10 μM) with doxorubicin (5 μM), B16 cells): synergistic cytotoxic effect
- IC50 (B16 cells): 37 ± 7.25 µM
- IC50 (HEK cells; HEK293, non-cancerous human embryonic kidney cells, 72 h, SRB): 364 ± 21.3 µM
- Selectivity for cancer cells with respect to healthy cells (HEK cells; cancer cell lines vs HEK): 2–10 fold

Structure (SMILES): O=C(CCc1ccccc1)Cn1cncn1 [QC-86]
- IC50 (HO-2 [3]): 18 µM

Structure (SMILES): Nc1ccc(SC[C@@H]2CO[C@](CCc3ccc(Cl)cc3)(Cn3ccnc3)O2)cc1 [Azalanstat]
- IC50 (HO-1 [2]): 5.3 µM
- IC50 (HO-2 [3]): 24.4 µM

- IC50 (HO-1 [1]): 28.8 ± 1.4 µM
- IC50 (HO-2 [4]): 14.4 ± 0.9 µM
- melting point: 196 to 197 °C
Structure (SMILES): O=C(Cn1ccnc1)NC(c1ccccc1)c1ccccc1 [Compound 3, N-Benzhydryl-2-(1H-imidazol-1-yl)acetamide]

- IC50 (HO-1 [1]): 80 ± 3.3 µM
- fold less potent towards HO-1 than parent compound 1 (HO-1 [1]; ratio of HO-1 IC50 values): around 200 fold
Structure (SMILES): Brc1cccc(C(Cn2ccnc2)OCc2ccccc2)c1 (stereo not drawn) [Compound 2, 1-[2-(3-Bromophenyl)-2-(phenylmethoxy)ethyl]-1H-imidazole]

Structure (SMILES): Clc1ccc(CCC2(Cn3ccnc3)OCCO2)cc1 [QC-15]
- IC50 (HO-1 [2]): 2.8 µM
- IC50 (HO-2 [3]): > 100 µM
